From patent US12421254B2, “KRAS modulators and uses thereof” (Quanta Therapeutics, Inc., priority 2023, dated 2025) come the findings set out here.

For assay [1], the target named is GST-tagged KRAS-G12D (2-169) (Homo sapiens, UniProt P01116, G12D). Put plainly: Nucleotide exchange assay (NEA), SOS-mediated, HTRF, KRAS G12D. It is filed as biochemical. Particulars: IC50 extracted at 30 min, 20 nM SOScat. The method in brief: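 Compound preincubated 1 h at RT with 0.25 nM GST-KRAS-G12D (2-169) and anti-GST Tb donor, then 20 nM SOS1cat (564-1049) and 150 nM GTP-DY-647P1 added; pH 7.3 HEPES buffer with MgCl2 and DTT. HTRF monitored at RT; % inhibition versus DMSO and no-SOS blank, 4-parameter IC50 taken at 30 min.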
(Time-resolved FRET reads energy transfer from a long-lived donor to a nearby acceptor.)

The target in assay [2] is GST-tagged KRAS-G12V (2-169) (Homo sapiens, UniProt P01116, G12V). Put plainly: Nucleotide exchange assay (NEA), SOS-mediated, HTRF, KRAS G12V. It counts as biochemical. Particulars: Table 4; IC50 extracted at 90 min; 80 nM SOS. The method in brief: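 GST-KRAS-G12V (2-169), 0.25 nM, pre-incubated 1 h at RT with compound, then SOS1cat (564-1049) 80 nM and GTP-DY-647P1 150 nM added in HEPES pH 7.3 buffer with MgCl2 and DTT. HTRF via anti-GST Tb cryptate read over 90 min; IC50 from 4-parameter fit at 90 min, blanked to no-SOS reactions.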

A further assay has as its target T1, KRAS G12D/RAF1 (Homo sapiens, UniProt P01116, G12D).
T1 construct: KRAS (1-169) proteins were expressed in BL21 (DE3)-CodonPlus E. coli; His6-MBP (N, cleaved yes)
As to the kind of experiment: Protein-protein interaction (PPI) HTRF assay KRAS G12D/RAF1. It counts as binding. Particulars: Table 2. The protocol:
(§1) When RAS proteins are in the active GTP-bound conformation, they bind the effector protein RAF1 at the N-terminus Ras-binding domain (RBD, residues 52-131) (Tran, et al., 2021). Homogenous time resolved fluorescence (HTRF) was used to monitor the interaction between wt or mutant KRAS and RAF1 or wt NRAS and RAF1. Compounds were assayed in the presence of KRAS G12D/V and RAF1 versus wt KRAS to assess activity against mutant and w.t. KRAS. Similarly, compounds were then assayed in the presence of w.t. NRAS and RAF1 to assess RAS isoform selectivity. In all assay formats, His-tagged RAF1 protein was incubated with the HTRF donor, anti-6His Tb Cryptate gold (Cisbio 61DB10RDF), and biotinylated RAS proteins were incubated with the HTRF acceptor, streptavidin-d2 (CisBio 610SADLA). The intensity of the fluorescence signal emitted is proportional to binding between the two proteins. The donor solution was prepared by mixing 16 nM His-tagged RAF1 in protein dilution buffer with 1:100 anti-6His Tb cryptate in PPI-Terbium detection buffer. 16 nM biotinylated RAS protein was diluted into protein dilution buffer (50 mM Tris-HCl pH 7.5, 150 mM NaCl, 0.1 mM MgCl2, 1 mM TCEP, 0.005% Tween20) and mixed with 1:2000 Streptavidin-d2 diluted in PPI-Terbium detection buffer (CisBio 61DB10RDF). 50× compound in DMSO was mixed with 16 nM KRAS-acceptor solution and incubated for 30 minutes at room temperature. After compound pre-incubation with KRAS, the RAF1 donor solution was added to the KRAS-acceptor solution and incubated for 1 hour at room temperature. The fluorescence signal emitted was monitored at 665 nm and 615 nm using an Envision multimode plate reader. The HTRF ratio (665/615) was calculated and normalized to 0% inhibition in the absence of compound and 100% inhibition in the presence of untagged RAF1 protein. PPI KRAS G12D/RAF1, KRAS G12V/RAF1, w.t. KRAS/RAF1 and NRAS/RAF1 IC50 (uM) values of selected compounds are depicted in Table 3 and Table 4 with compounds having a value <0.1 uM as ++++; ≥0.1 uM to 1 uM as +++; ≥1 uM to 10 uM as ++; ≥10 uM to 100 uM as +; and ≥100 uM as NA.

Another assay addresses T2, KRAS G12V/RAF1 (Homo sapiens, UniProt P01116, G12V).
T2 construct: KRAS (1-169) proteins were expressed in BL21 (DE3)-CodonPlus E. coli; His6-MBP (N, cleaved yes)
As to the kind of experiment: Protein-protein interaction (PPI) HTRF assay KRAS G12V/RAF1. It counts as binding. The conditions noted are these: Table 3. The protocol: as §1

The next assay has as its system phospho-ERK in AGS cells. Put plainly: pERK In Cell Western (ICW) assay (Method B), AGS. It is filed as cell-based. Particulars: Homo sapiens, Table 2, 3 hours. The protocol: pERK ICW is a high throughput screening assay to evaluate the cellular potency of mutant KRAS small molecule inhibitors. KRAS mutant cell lines AGS, GP2D (KRAS-G12D) as well as SW620 (KRAS-G12V) were purchased from ATCC and maintained respectively in RPMI/DMEM/RPMI medium supplemented with 10% fetal bovine serum.
Cells grown in exponential phase were trypsinized, resuspended in fresh media, and viable cells were counted using a cell counter with Trypan Blue (BioRad TC20). Cells were seeded into 384-well plate (Greiner 781091) at density of 5,000 cells/well for AGS and 10,000 cells/well for GP2D/SW620 and allowed to grow overnight in a 37° C. CO2 incubator. The next day, compounds were dispensed into wells with a ½ log, 9-point serial dilution using a Tecan D300e dispenser and incubated for 3 hours in a 37° C. CO2 incubator. Cells were then fixed with paraformaldehyde (Electron Microscopy Sciences, 15710, 4% final concentration) for 30 min, permeabilized with wash buffer (1×PBS+0.1% Triton X-100) for 30 min and blocked with Odyssey blocking buffer (Li—COR 927-70001) for 1 hour, all at room temperature (RT). Phospho-ERK antibody (CST 4370L) was diluted 1:500 in Odyssey T20 (PBS) antibody diluent (Li—COR 927-75001) and incubated with cells overnight at 4° C. The next day, plates were washed 5× with wash buffer, incubated with IRDye 800 CW, Goat anti-Rabbit secondary antibody (Li—COR 926-32211, 1:800) and DRAQ5 (CST 4084L, 1:5,000) diluted in Odyssey T20 (PBS) antibody diluent for 1 hour, washed 5×, and imaged on an Odyssey CLx imaging system.
For data analysis, signal intensities from 800 (phosphor-ERK) and 700 (DRAQ5) channels were extracted, and phospho-ERK signals were normalized to DRAQ5 signals for each well and percent of blank control values were computed. Data were then imported into Graphpad Prism to compute half-maximal inhibitory concentrations (IC50) using a 4-parameter variable slope model. Z-factor for each plate was computed from signals derived from wells treated with either DMSO or 5 μM of control compound. AGS pERK ICW (Method B) IC50 (uM) values of selected compounds are depicted in Table 2 with compounds having a value ≥0.001 uM to 0.01 uM as ++++; ≥0.01 uM to 0.1 uM as +++; ≥0.1 uM to 1 uM as ++; ≥1 uM to 10 uM as + and ≥10 uM as NA.

Assay [3] relates to phospho-ERK in GP2D (KRAS-G12D) cells. As to the kind of experiment: pERK In Cell Western (ICW) assay (Method B), GP2D. It is filed as cell-based. The conditions noted are these: GP2d, 3 h, Table 4. The method in brief:
(§2)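 Cells were seeded at 5,000/well (AGS) or 10,000/well (GP2D, SW620), grown overnight, then treated 3 h at 37 °C with a ½-log 9-point compound dilution. Fixed cells were stained for phospho-ERK with DRAQ5 as DNA counterstain; pERK/DRAQ5 ratio as percent of blank control gave IC50 by 4-parameter fit.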

The subject of assay [4] is phospho-ERK in SW620 (KRAS-G12V) cells. Put plainly: pERK In Cell Western (ICW) assay (Method B), SW620. The conditions noted are these: Homo sapiens, SW-620, 3 h, Table 4. It counts as cell-based. The method in brief:
as §2

Setting [5] is: Table 2, read-out: NEA-G12D (uM) IC50.
Setting [6] is: Table 4, read-out: NEA G12D IC50.

SMILES strings stand for the structures. Like-named read-outs stand apart in the source and are kept apart here.

GST-tagged KRAS-G12D (2-169), sequence (P01116 2-169 isoform P01116-2 G12D): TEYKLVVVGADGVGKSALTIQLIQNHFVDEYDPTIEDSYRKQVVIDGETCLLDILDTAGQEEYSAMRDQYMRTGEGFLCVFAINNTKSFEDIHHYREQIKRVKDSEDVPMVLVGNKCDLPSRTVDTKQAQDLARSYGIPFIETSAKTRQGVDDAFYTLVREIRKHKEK
GST-tagged KRAS-G12V (2-169), sequence (P01116 2-169 isoform P01116-2 G12V): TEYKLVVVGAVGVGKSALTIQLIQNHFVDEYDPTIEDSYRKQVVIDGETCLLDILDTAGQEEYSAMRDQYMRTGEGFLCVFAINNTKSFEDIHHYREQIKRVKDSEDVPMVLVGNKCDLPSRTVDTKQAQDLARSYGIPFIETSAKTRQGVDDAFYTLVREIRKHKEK
T2 sequence (P01116 with tags, fused parts or gaps isoform P01116-2 G12V): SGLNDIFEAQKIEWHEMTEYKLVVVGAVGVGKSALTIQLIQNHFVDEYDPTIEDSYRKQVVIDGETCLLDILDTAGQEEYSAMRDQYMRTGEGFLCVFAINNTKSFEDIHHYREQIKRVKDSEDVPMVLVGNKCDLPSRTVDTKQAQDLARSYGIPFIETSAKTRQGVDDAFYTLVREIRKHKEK
T1 sequence (P01116 with tags, fused parts or gaps isoform P01116-2 G12D): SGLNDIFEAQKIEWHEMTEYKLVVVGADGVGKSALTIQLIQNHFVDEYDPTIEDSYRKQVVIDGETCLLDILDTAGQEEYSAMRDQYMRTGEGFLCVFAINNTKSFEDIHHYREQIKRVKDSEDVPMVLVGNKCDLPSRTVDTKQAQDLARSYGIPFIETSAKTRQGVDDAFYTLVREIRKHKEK

Regarding `N#Cc1c(N)sc2c1C1(CC2)CCN(c2nc(OCC3(CN4CCOCC4)CC3)nc(N3C[C@H]4CC[C@@H](C3)N4)n2)C1` (stereo partly drawn) [Compound 9, 2-amino-1′-[4-[(1R,5S)-3,8-diazabicyclo[3.2.1]octan-3-yl]-6-[[1-(morpholinomethyl)cyclopropyl]methoxy]-1,3,5-triazin-2-yl]spiro[5,6-dihydrocyclopenta[b]thiophene-4,3′-pyrrolidine]-3-carbonitrile], the IC50 in assay [1] (setting [5]) was less than 0.01 µM; in assay [1] (setting [6]), less than 0.01 µM; in assay [2] it was 1000 to 20000 nM; on KRAS G12D/RAF1, 1 to 10 µM; on KRAS G12V/RAF1, 10 to 100 µM; in the assay on phospho-ERK in AGS cells it was 0.1 to 1 µM. Further, in assay [3], the IC50 lay within 10 to 100 nM.

`N#Cc1c(N)sc2c1C1(CC2)CCN(c2nc(OC[C@@]34CCCN3C[C@H](F)C4)nc(N3CCCC(C#N)CC3)n2)C1` (stereo partly drawn) [Compound 12, 2-amino-1′-[4-(4-cyanoazepan-1-yl)-6-[[(2R,8S)-2-fluoro-1,2,3,5,6,7-hexahydropyrrolizin-8-yl]methoxy]-1,3,5-triazin-2-yl]spiro[5,6-dihydrocyclopenta[b]thiophene-4,3′-pyrrolidine]-3-carbonitrile]: the IC50 in assay [1] (setting [5]) was in the range of 0.1 to 1 µM; in assay [1] (setting [6]) it was 0.1 to 1 µM; in assay [2] it was 100 to 1000 nM; on KRAS G12D/RAF1, 10 to 100 µM; against KRAS G12V/RAF1, 10 to 100 µM.

As for `CC(C#N)COc1nc(OC[C@@]23CCCN2C[C@H](F)C3)nc(N2CC3(CCc4sc(N)c(C#N)c43)C2)n1` (stereo partly drawn) [Compound 17, 2-amino-1′-[4-(2-cyanopropoxy)-6-[[(2R,8S)-2-fluoro-1,2,3,5,6,7-hexahydropyrrolizin-8-yl]methoxy]-1,3,5-triazin-2-yl]spiro[5,6-dihydrocyclopenta[b]thiophene-4,3′-azetidine]-3-carbonitrile], the IC50 lay in the range of 0.1 to 1 µM in assay [1] (setting [5]); 0.1 to 1 µM in assay [1] (setting [6]); 10 to 100 nM in assay [2]; 10 to 100 µM on KRAS G12D/RAF1; 10 to 100 µM on KRAS G12V/RAF1.

As to `CCN(c1nc(OCC23CCCN2CCN(C)C3)nc(N2CC3(C2)SCc2sc(N)c(C#N)c23)n1)[C@H](C)c1cccnc1N` (stereo partly drawn) [Compound 223, 2-amino-1′-[4-[[(1R)-1-(2-amino-3-pyridyl)ethyl]-ethyl-amino]-6-[(2-methyl-1,3,4,6,7,8-hexahydropyrrolo[1,2-a]pyrazin-8a-yl)methoxy]-1,3,5-triazin-2-yl]spiro[6H-thieno[3,4-b]thiophene-4,3′-azetidine]-3-carbonitrile], the half-inhibitory concentration (IC50) was less than 0.01 µM in assay [1] (setting [6]), less than 10 nM in assay [2], 10 to 100 nM in assay [3] and 10 to 100 nM in assay [4].

Take `CCN(c1nc(OC[C@@]23CCCN2C[C@H](F)C3)nc(N2CC3(C2)c2c(sc(N)c2C#N)CN3C)n1)[C@H](C)c1cccnc1N` [Compound 226, 2-amino-1′-[4-[[(1R)-1-(2-amino-3-pyridyl)ethyl]-ethyl-amino]-6-[[(2R,8S)-2-fluoro-1,2,3,5,6,7-hexahydropyrrolizin-8-yl]methoxy]-1,3,5-triazin-2-yl]-5-methyl-spiro[6H-thieno[2,3-c]pyrrole-4,3′-azetidine]-3-carbonitrile]: the IC50 was less than 0.01 µM in assay [1] (setting [6]), less than 10 nM in assay [2], 10 to 100 nM in assay [3] and 10 to 100 nM in assay [4].

Consider `CC(C#N)N(CC(F)F)c1nc(OC[C@@]23CCCN2C[C@H](F)C3)nc(N2CC3(C2)SCc2sc(N)c(C#N)c23)n1` (stereo partly drawn) [Compound 258, 2-amino-1′-[4-[1-cyanoethyl(2,2-difluoroethyl)amino]-6-[[(2R,8S)-2-fluoro-1,2,3,5,6,7-hexahydropyrrolizin-8-yl]methoxy]-1,3,5-triazin-2-yl]spiro[6H-thieno[2,3-c]thiophene-4,3′-azetidine]-3-carbonitrile], for which the IC50 in assay [1] (setting [6]) was less than 0.01 µM; in assay [2], less than 10 nM; in assay [3], 10 to 100 nM; in assay [4] it was 10 to 100 nM.

For `CC(CO)N(c1nc(OC[C@@]23CCCN2C[C@H](F)C3)nc(N2CC3(C2)SCc2sc(N)c(C#N)c23)n1)C1(C#N)CC1` (stereo partly drawn) [Compound 262, 2-amino-1′-[4-[(1-cyanocyclopropyl)-(2-hydroxy-1-methyl-ethyl)amino]-6-[[(2R,8S)-2-fluoro-1,2,3,5,6,7-hexahydropyrrolizin-8-yl]methoxy]-1,3,5-triazin-2-yl]spiro[6H-thieno[3,4-b]thiophene-4,3′-azetidine]-3-carbonitrile], the half-inhibitory concentration (IC50) in assay [1] (setting [6]) is less than 0.01 µM; in assay [2], less than 10 nM; in assay [3], 10 to 100 nM; in assay [4], 10 to 100 nM.

Take `C[C@H](c1cccnc1N)N(c1nc(OC[C@@]23CCCN2C[C@H](F)C3)nc(N2CC3(C2)SCc2sc(N)c(C#N)c23)n1)C1CC1` [Compound 264, 2-amino-1′-[4-[[(1R)-1-(2-amino-3-pyridyl)ethyl]-cyclopropyl-amino]-6-[[(2R,8S)-2-fluoro-1,2,3,5,6,7-hexahydropyrrolizin-8-yl]methoxy]-1,3,5-triazin-2-yl]spiro[6H-thieno[3,4-b]thiophene-4,3′-azetidine]-3-carbonitrile]: the IC50 is less than 0.01 µM in assay [1] (setting [6]), less than 10 nM in assay [2], 10 to 100 nM in assay [3] and less than 10 nM in assay [4].

Usually IC50 stands for the concentration that gives 50% inhibition.
